# Measured values: US20060057104A1, “Methods for stimulating tlr irf3 pathways for inducing anti-microbial, anti-inflammatory and anticancer responses” (THE Regents of the University of California Office of the …, priority 2002, published 2006)
# Legend:
# STAT1 = conditions: lipid A 1 ng/ml, poly I:C 1 μg/ml
# Method: BMMs from both wild-type and IFNAR−/− mice were stimulated with lipid A (1 ng/ml), poly I:C (1 μg/ml), CpG (100 nM), or fresh medium (M) for the indicated time periods, as described in Example 2, infra.
# (A): Cell lysates were subjected to western blotting analyses to detect phosphorylated STAT1 (P-STAT1) and total STAT1.
# For STAT1 immunoblotting, cells were lysed in modified RIPA buffer and 20 μg of protein were loaded per lane and separated by SDS-PAGE. Gels were transferred to nitrocellulose filters and immunoblotted using the antibody manufacturers' recommended instructions. Antibodies specific to the STAT1 or the phosphorylated forms of STAT1 were obtained from Cell Signaling Technologies and Santa Cruz Biotechnologies, respectively. The anti-MyD88 antibody was purchased from ProSci Incorporated. For detection of MHV68, equal amounts were loaded in each lane and analyzed by western blotting techniques using rabbit anti-M9. Blots were stripped and re-probed with anti-actin (Sigma) to verify equal loading.
# To address this issue we stimulated IFNAR^−/− BMMs with lipid A and poly I:C and assayed for STAT1 phosphorylation.
# [1] = test system: RAW 264.7 murine macrophage cell line; test: Apoptosis by TUNNEL assay in RAW 264.7 cells, laser scanner cytometry; type: cell-based; conditions: RAW 264.7, two 24 h intervals; 10 ng/ml Lipid A or 10 mg/ml poly I:C
# Method: The RAW 264.7 murine macrophage cell line was treated for two 24 h intervals with media alone (control), 10 ng/ml Lipid A (Lipid A) or 10 mg/ml poly I:C. In addition, as a positive control for apoptosis, another set of cells was treated with 3% H2O2 for 2 hours. Following fixation and permeablization, apoptosis was measured by the TUNNEL assay using the Death kit (Roche). Apoptotic cells are visualized by an increase in fluorescence (FITC) and detected by laser scanner cytometry (LSC). […] The cell cycle is divided into G1 (red), S-phase (yellow) and G2/M (blue). Thus, TLR3/4 activation promotes apoptosis at all stages of the cell cycle (FIG. 16).
# BMMs = test: Quantitative real-time PCR gene expression in BMMs, wild-type and IFNAR deficient (Example 2); type: cell-based, murine; conditions: for TLR3 mRNA production / TLR4 mRNA production: primary macrophages, by four hours; for TLR3 mRNA production / TLR4 mRNA production / IFN-β and IP10 induction at one hour: poly I:C 1 μg/ml, lipid A 1 ng/ml; for IFI-204 expression at one hour / IFN-β and IP10 induction at one hour: wild type and IFNAR knockout macrophages; for ICAM1 mRNA (induction control): wild-type and knockout cells, one and four hours
# Method: Murine BMMs were stimulated with poly(I:C) (10 μg/ml) or lipid A (1 ng/ml) for the indicated times. Total RiNA was isolated and converted to cDNA for quantitative real-time PCR analysis using primers specific for IFN-β, IFI-204, IP10, IκBα, or L32. Experiments were repeated three times, and the data are presented in relative expression units on a log scale, as described in Example 2, infra.
# Primary macrophage cells derived from bone marrow cells were stimulated with poly I:C (1 μg/ml) or lipid A (1 ng/ml) for the indicated times, as described in Example 2, infra.
# (B) TLR3 and TLR4 mRNA levels were also assessed in cells deficient in IFNAR, and cells stimulated with rIFN-β (10, 100, and 1000 U). Experiments were repeated at least two separate times, and data are presented in relative expression units. L32 was used to normalize all samples.
# Both wild-type cells and cells deficient in IFNAR were stimulated with poly I:C (1 μg/ml) or lipid A (1 ng/ml) for either 1 or 4 h. IFN-β, IP10, IFI-204, ICAM1, and L32 mRNA levels were assessed. Data are representative of three independent experiments and presented in relative expression units, as described in Example 2, infra.
# Murine bone marrow-derived macrophages (BMMs) were differentiated from marrow as previously described (Doyle, S. E., S. A. Vaidya, R. O'Connell, H. Dadgostar, P. W. Dempsey, T.-T. Wu, G. Rao, R. Sun, M. E. Haberland, R. L. Modlin, and G. Cheng. 2002. IRF3 mediates a TLR3/TLR4-specific antiviral gene program. Immunity 17:251). A129 (IFNAR-1^−/−) (Muller, U., U. Steinhoff, L. F. L. Reis, S. Hemmi, J. Pavlovic, R. M. Zinkernagel, and M. Aguet. 1994. Functional role of type I and type II interferons in antiviral defense. Science 264:1918) and B6129SF2/J wild type control mice were obtained from B&K Universal Ltd. and Jackson Laboratories, respectively. C57/B6 mice were used for all experiments not involving the A129 mice (Jackson Laboratories). Specific TLR activation was achieved using F-583 (Rd mutant) E. coli lipid A for TLR4 (Sigma), CpG oligonucleotides for TLR9 (Invitrogen) and poly I:C for TLR3 (Pharmacia). For experiments employing the TIRAP/MAL inhibitory peptide (CN Biosciences), cells were pretreated for 1 hour with 20 μM peptide or DMSO alone. Cells were then stimulated with PAMPs in the presence of the inhibitory peptide. For experiments using murine rIFN-β (R&D Systems), wild-type macrophage cells were stimulated with 10, 100, or 1000 units. Viral infection and harvest was performed using MHV68 at an M.O.I. of 5 as previously described (Doyle, S. E., S. A. Vaidya, R. O'Connell, H. Dadgostar, P. W. Dempsey, T.-T. Wu, G. Rao, R. Sun, M. E. Haberland, R. L. Modlin, and G. Cheng. 2002. IRF3 mediates a TLR3/TLR4-specific antiviral gene program. Immunity 17:251).
# RNA was isolated by standard guanidium isothiocyanate methods. cDNA template for quantitative realtime PCR analysis was then synthesized and PCR was performed using the iCycler thermocycler (Bio-Rad) as previously described (Doyle, S. E., S. A. Vaidya, R. O'Connell, H. Dadgostar, P. W. Dempsey, T.-T. Wu, G. Rao, R. Sun, M. E. Haberland, R. L. Modlin, and G. Cheng. 2002. IRF3 mediates a TLR3/TLR4-specific antiviral gene program. Immunity 17:251). IFN-βIP10, IκBα and IFI-204 primers were the same as those previously described (Doyle, S. E., S. A. Vaidya, R. O'Connell, H. Dadgostar, P. W. Dempsey, T.-T. Wu, G. Rao, R. Sun, M. E. Haberland, R. L. Modlin, and G. Cheng. 2002. IRF3 mediates a TLR3/TLR4-specific antiviral gene program. Immunity 17:251). For other genes, the following primers were used: […]
Substance,STAT1 activation in IFNAR−/− macrophage cells (STAT1),increase in apoptotic cells [1],expression of MyD88 and TIRAP/MAL (BMMs),"IFI-204 expression by four hours, IFNAR knockout cells (BMMs)","IP10 expression by four hours, IFNAR knockout cells (BMMs)",TLR3 mRNA production (BMMs),TLR4 mRNA production (BMMs),"IFI-204 expression by four hours, wild type cells (BMMs)","IP10 expression by four hours, wild type cells (BMMs)",IFI-204 expression at one hour (BMMs),IFN-β and IP10 induction at one hour (BMMs),ICAM1 mRNA (induction control) (BMMs),"induction of IFN-β, IP10 and IFI-204 relative to TLR4 agonist lipid A (BMMs; BMMs, up to twelve hours, poly I:C 10 μg/ml vs lipid A 1 ng/ml)"
lipid A,abolished,10 fold,can induce the expression,not detectable,remained relatively unchanged,caused the induction of TLR3,but not TLR4,induced to high levels,significantly enhanced,remained at basal levels,induced by one hour,elevated by one hour and remained high by four hours,–
poly I:C,abolished,100 fold,can induce the expression,not detectable,remained relatively unchanged,caused the induction of TLR3,but not TLR4,induced to high levels,significantly enhanced,remained at basal levels,induced by one hour,elevated by one hour and remained high by four hours,induced to higher levels and for extended periods of time
